Here are results for 6 molecules from patent US9918480B2, “Compositions and methods to selectively control invasive species” (STEPHEN F. AUSTIN STATE UNIVERSITY, priority 2013, dated 2018).

Read-outs that look alike come from different tables or passages of the source.

Data set [1] relates to giant salvinia (Salvinia molesta). Kind of data set: Spray of salviniside II and other isolates/fractions on giant salvinia plants. It counts as in vivo. The arrangement: key to activity class against giant salvinia: inactive: not able to inhibit the growth of giant salvinia at all; active: able to fully inhibit the growth of giant salvinia at high concentrations; very active: able to fully inhibit the growth of giant salvinia at low concentrations. Here is the method: The combined fractions were loaded on a pre-equilibrated open ODS column (60×600 mm). The ODS column was eluted successively with 30%, 55%, 75% and 100% MeOH to yield four fractions F1, F2, F3, and F4, respectively. […] NMR experiments were performed on a JEOL ECS-400 and a Bruker Avance 700 NMR instrument. NMR data were reported as δ (ppm) values and referenced to the solvent used. HRESIMS were acquired on an electrospray instrument (MDS Sciex Pulsar Qstar, Ontario, Canada). Octadecyl-functionalized silica gel, silica gel, Sephadex LH-20, and TLC plates were purchased from Aldrich Chemical Co. HPLC analysis was performed on a Hewlett Packard Series 1100 with a HP 1100 diode array detector using a Hypersil ODS column (150×4.6 mm, 5 μM, Supelco; flow rate, 1 mL/min; MeOH/H2O (v/v) linear gradient, 2:98-98:2 in 35 min). Preparative HPLC was performed with an Acuflow Series III pump connected with an Acutect 500 UV/VIS detector using an Econosil ODS column (250×22 mm, 10 μM, All tech). The total 27 healthy and untreated living plants of giant salvinia (in secondary growth stage, approximately 10 g in fresh weight each) were cultured and tested in plastic containers (14×15 cm, 0.68 L) in the NCPC Lab at RT. The […] treatments were as follows. Controls: 9 plants with three in each container (3 replications) were cultured with 150 mL of tap water; 0.01% salviniside II treatment: 9 plants with three in each container (3 replications) were sprayed with 150 mL 0.01% of salviniside II dissolved in tap water; and 0.1% salviniside II treatment: 9 plants with three in each container (3 replications) were sprayed with 150 mL 0.1% of salviniside II dissolved in tap water. […] By the end of two weeks, new growth biomass of plants in each treatment was measured. The biomass of new growth was a primary factor to measure the inhibition of each treatment on the target plant.

For a further data set, the system named is L. leucocephala. The following applies: 100 mg/L; cited from earlier work.
Data set [2] deals with red imported fire ant (Solenopsis invicta Buren) workers. As to the kind of experiment: Contact toxicity assay, topical spray on fire ant workers, 7 h. The data set is classed as in vivo. As to conditions: PROBIT. On the procedure: (§1) Preparation of the fire ant extracts: (1) Acetone extract: 97 g (in fresh weight) of the red imported fire ant workers were extracted two times with acetone at RT (each 250 mL, 24 h). […] (2) Ethanol extract: 110 g (in fresh weight) of the whole worker bodies of the red imported fire ant (Solenopsis invicta Buren) (family Furmicidae) were extracted two times with 95% EtOH at RT (each 250 mL, 24 h). […] Both extracts were dissolved in water and then prepared as experimental solutions at the concentration of 0.1%, 1%, 5%, and 10%, respectively. […] The mixture was put under ultrasound for 30 min extraction. The fire ants were then removed and the extract was dried with anhydrous magnesium sulfate. 500 μL of the extract was transferred to NMR tube for detection. ^1H-NMR experiments were performed on a JEOL ECS 400 spectrometer, with spectroscopic data referenced to the solvent used. […] The ants in each beaker were topically sprayed with a total 1 mL of 0.1%, 1%, 5%, or 10% solutions of either acetone or ethanol extract, respectively. The control group was sprayed with 1 mL pure water. The beakers in all treatments were covered by cloth to prevent the escape of the fire ants. The surviving number of the fire ants in each treatment was counted by 1 h interval for 7 h. […] The ants in each beaker were topically sprayed with a total 1 mL of 0.1%, 1%, or 5% solutions of either formic or acetic acids, respectively. The control group was sprayed with 1 mL pure water. The beakers in all treatments were covered by cloth to prevent the escape of fire ants. The surviving number of the fire ants in each treatment was counted by 1 h interval for 7 h. […] The surviving number of the fire ants in each treatment was counted by 15 min interval for 90 min. […] The surviving number of the fire ants in each treatment was counted by 15 min interval for 90 min. […] The surviving number of the fire ants in each treatment was counted by 1 h interval for 7 h. […] The surviving number of the fire ants in each treatment was counted by 1 h interval for 2 h. […]

Data set [3] deals with giant salvinia (Salvinia molesta). Here is the method: Plant growth and survival status were documented and photographed hourly for the first 5 h and then daily for seven days after the treatment.
Data set [4] has as its system subterranean termite (Reticulitermes flavipes (Kollar)). The following applies: for termite kill: during the first hour. On the procedure:
The mixture was put under ultrasound for 30 min extraction. The termites were then removed and the extract was dried with anhydrous magnesium sulfate. 500 μL of the extract was transferred to NMR tube for detection. ^1H-NMR experiments were performed on a JEOL ECS 400 spectrometer, with spectroscopic data referenced to the solvent used. […] The control group was sprayed with 1 mL pure water. The beakers in all treatments were covered by cloth to prevent the escape of termites. The surviving number of the termites in each treatment was counted by 1 h interval for 7 h.

Data set [5] concerns red imported fire ant (Solenopsis invicta Buren) workers. As to conditions: for average mortality: 90 min. Here is the method:
as §1

The test system of data set [6] is seedlings of rice cultivars. The following applies: vs four species of Brassicaceae, Asteraceae, Fabaceae and five weed grass species of Poaceae; cited from earlier work.

Take “4″,6″-O-[3,5-dicarbonyl-8-hydroxy-2-(4′,5′-dihydroxy-phenyl)-1-benzofuran-2-yl]-D-glucopyranose [salviniside II]”: the new growth thereafter entry in data set [1] (0.1%, eight months of observation) is recorded as “no new growth”. The “growth of giant salvinia” value in data set [1] (0.1%, within two weeks, lab at RT) is recorded as “totally inhibited”. Further, the “activity class against giant salvinia” value in data set [1] (isolates and subfractions of F3) was “active”.
Take `NC(Cn1ccc(=O)c(O)c1)C(=O)O` (stereo not shown) [Minosine]: in the data set with L. leucocephala, the “inhibition on the producing plants” value is recorded as “did not show any inhibition”.
Regarding `CC(=O)O` [acetic acid], in data set [2], the “7 h LD50” value is reported as 6.42% and the “7 h LD90” value turned out to be 9.96%.
As for `O=CO` [formic acid], the growth inhibition result in data set [3] (0.01% concentration) is reported as “still effectively inhibited the growth of giant salvinia”. In addition, the plants killed result in data set [3] (0.05% concentration, within 24 h) was “approximately 50%”. Also, the “7 h LD90” value in data set [2] amounted to 5.09%; in data set [4] (contact toxicity), 9.08%. Also, the “impact on the termites” value in data set [4] (0.1%) is “no impact”. In data set [4] (1%, 7 h), the termites killed result is “more than 40%”. The termite kill result in data set [4] (5%) and in data set [4] (10%) was “killed all termites” throughout. Besides, the average mortality entry in data set [5] (2.5%) is given as “more than 70%”; in data set [5] (5%), 100%. The “2 h LD90” value in data set [5] (fumigation, PROBIT) is given as 0.9%.
In the case of `C=C[C@]1(C)CC[C@@H]2C(=C[C@H]3OC(=O)[C@@]4(C)C(=O)CC[C@@]2(C)[C@@H]34)C1` [momilactone A], the “effective concentration to inhibit rice seedlings relative to that for other species” value in data set [6] was 100 times.
Regarding `C=C[C@]1(C)CC[C@@H]2C(=C[C@H]3OC(=O)[C@]4(C)[C@H]3[C@]23CC[C@@]4(O)OC3)C1` [momilactone B], the “effective concentration to inhibit rice seedlings relative to that for other species” value in data set [6] is 333 times.
